Experimental data taken from patent publication US20260109721A1, “IONIZABLE CATIONIC LIPIDS INCORPORATING SILICON: SYNTHESIS AND LNP FORMULATION” (priority 2023, published 2026).

How the values were obtained:
HeLa cells [1] = assay: Transfection efficiency with Luciferase (SecNLuc) mRNA, Nano-Glo assay (Method A); format: cell-based; settings: Luc mRNA, 24 h, luminescence; for Transfection 10 ng mRNA: 10 ng mRNA/well; for Transfection 50 ng mRNA: 50 ng mRNA/well; for Transfection 100 ng mRNA: 100 ng mRNA/well
Description: (§1) The synthesized lipids were tested in term of in vitro transfection efficacy and toxicity on HeLa cells. In order to perform the mentioned biological tests, appropriate LNPs had to be formulated from the synthesized lipids. The formulation technique was different in Method A and B. The particle size, polydispersity index (PDI) and zeta potential of resulting LNPs were determined by means of Dynamic Light Scattering technique (DLS). Prior to biological testing the encapsulation efficiency (EE) of the loaded LNPs was determined by using RiboGreen RNA assay. In case of Method A Luc mRNA while in case of Method B GFP mRNA was transfected into the cells. In parallel with the transfection experiments, toxicity of the investigated LNPs was determined, in case of Method A resazurin assay while in case of Method B MTT assay was used. Additionally, the toxicity of the lipids was investigated on HepG2 cells and IC50 values were determined.
• 1. Prepare mRNA solution by adding 100 ng mRNA (SecNLuc, #P009024, RiboPro) to 5 μl Opti-MEM • multiply by number of wells, include different concentrations and add 10% extra • a standard set-up we use is 100 ng-50 ng-10 ng mRNA/well in triplicate, which would need […] mRNA (includes 10% extra)
• 2. (If applicable) Prepare different concentrations in Opti-MEM (for instance 100/50/10 ng). • 3. Add 10 μl to each well and mix carefully by pipetting. • 4. Mix by swirling the plate horizontally at modest speed. Reverse in direction 3 times. • 5. Incubate for 24 hours (incubator).
This protocol is applied to measure luciferase activity for secreted NanoLuc and is based on the protocol by Promega (Nano-Glo® Luciferase Assay System #N1110-1150). The protocol is designed for a 384-wells plate, but volumes can be changed accordingly for other plates.
• 1. Plate cells (HeLa) in 96-well plate, grow until 80% confluent and transfect with SecNanoLuc mRNA and incubate for the desired period (24 h). • 2. After incubation, the translated protein is accumulated in the medium. Transfer medium to a new plate or tubes. • 3. Transfer 12 μl of each sample to a black-walled, clear-bottom 384-well plate • Black-walled plates are important to prevent shine-through of luminescence from other wells; alternatively, multiple wells between samples can be left empty. • 4. Set-up plate reader • 5. Prepare the desired amount of Nano-Glo® Luciferase Assay Reagent by combining one volume of Nano-Glo® Luciferase Assay Substrate with 50 volumes of Nano-Glo® Luciferase Assay Buffer: • a. composition: 100 mM MES pH 6; 1 mM EDTA; […]; 150 mM KCl; 1 mM DTT; 35 mM Thiourea; • b. briefly spin tubes containing substrate in a microcentrifuge before use. • 6. Add and mix (by pipetting) 12 μl Nano-Glo® Luciferase Assay Reagent per well • Wait approximately 3 minutes before measuring luminescence. […] Measure luminescence in plate reader using standard protocol luciferase (this includes mixing sample in plate reader)

HeLa cells [2] = assay: Cell viability assessment with resazurin assay (Method A); format: cell-based; settings: human
Description: as §1
This protocol is used to determine the metabolic activity of cells as a measure for cell viability after exposure to potentially toxic substances. Resazurin is converted in mitochondria by reduction to resorufin, which has a much higher fluorescence at ˜600 nm compared to unconverted resazurin. A lower amount/percentage of conversion is correlated with reduced cellular metabolism and indirectly to cellular death and toxicity. Care must be taken with interpretation of the read-out, as 50% reduction in resazurin conversion may mean 50% reduction of cellular metabolism of 100% alive cells, or 50% of cells dead, and any combination in between.
• 1. Prepare 0.25 mg/ml stock solution resazurin in fresh cell culture medium. Resazurin is auto-reducing over time in solution, especially in medium, and fresh stocks should be prepared every 2-3 days. Stocks should be stored at 4° C. and protected from light. For HeLa cells, DMEM/F12 with 10% FCS is used. • 2. Dilute stock solution 10× in fresh cell culture medium to 0.025 mg/ml->ready for application on cells. For HeLa cells, DMEM/F12 with 10% FCS is used. • 3. Collect 96-well plate and replace cell-culture spent medium with 100 μl per well resazurin solution. Add some resazurin solution for background measurement in wells not containing cells. • 4. Incubate for 50 minutes in incubator at 37° C., 5% CO2, 95% RH. • 5. Transfer resazurin solution to a fresh 96- or 384-well plate. • 6. Measure in plate reader using 540/25 nm (excitation) and 610/40 nm (emission) using standard settings (PTM low/OD-1.0). • 7. Subtract the average background measurement from all samples. Set the average of the negative controls (well receiving OptiMEM only during transfection) to 100% and express all values as percentage of the control activity. Typically, at lower levels of treatment, elevation of metabolic activity is shown, whereas for toxic substances, at toxic concentrations sigmoidal curves can be obtained, with lower activity indicating higher toxicity.

| SMILES | Transfection 10 ng mRNA (HeLa cells [1]) | Transfection 50 ng mRNA (HeLa cells [1]) | Transfection 100 ng mRNA (HeLa cells [1]) | Cell Viability % (Average metabolic rate over all doses, Resazurin) (HeLa cells [2]) |
| --- | --- | --- | --- | --- |
| CCCCC/C=C\C/C=C\CCCCCCCCOC(CC[C@@H](C)C1CCC2C3CCC4C[C@H](OC)CC[C@]4(C)C3CC[C@@]21C)O[Si](C)(C)OCCCCCCN(CCO)CCO (stereo partly drawn) [Example 52, (23Z,26Z)-3-(2-hydroxyethyl)-13-((3R)-3-((3R,10S,13R)-3-methoxy-10,13-dimethylhexadecahydro-1H-cyclopenta[a]phenanthren-17-yl)butyl)-11,11-dimethyl-10,12,14-trioxa-3-aza-11-siladotriaconta-23,26-dien-1-ol] | 1.02E+05 | 1.65E+06 | 9.16E+06 | 95% |
| CCCCC/C=C\C/C=C\CCCCCCCCOC(CCCCCCC/C=C\C/C=C\CCCCC)O[Si](C)(C)OCCCCCCN1CCOCC1 (stereo not drawn) [Example 55, 4-((20Z,23Z)-10-((8Z,11Z)-heptadeca-8,11-dien-1-yl)-8,8-dimethyl-7,9,11-trioxa-8-silanonacosa-20,23-dien-1-yl)morpholine] | 1.32E+06 | 7.68E+06 | 1.03E+07 | 91% |
| CCCCC/C=C\C/C=C\CCCCCCCCOC(CCCCCCC/C=C\C/C=C\CCCCC)O[Si](C)(C)OCCCCCCN(C)CCO (stereo not drawn) [Example 56, (23Z,26Z)-13-((8Z,11Z)-heptadeca-8,11-dien-1-yl)-3,11,11-trimethyl-10,12,14-trioxa-3-aza-11-siladotriaconta-23,26-dien-1-ol] | 3.00E+00 | 5.63E+01 | 6.90E+01 | 93% |
| CCCCC/C=C\C/C=C\CCCCCCCCOC(CCCCCCC/C=C\C/C=C\CCCCC)O[Si](C)(C)OCCCCCCN1CCCCC1 (stereo not drawn) [Example 57, 1-((20Z,23Z)-10-((8Z,11Z)-heptadeca-8,11-dien-1-yl)-8,8-dimethyl-7,9,11-trioxa-8-silanonacosa-20,23-dien-1-yl)piperidine] | 9.82E+04 | 1.48E+06 | 5.16E+06 | 99% |
| CCCCC/C=C\C/C=C\CCCCCCCCOC(CCCCCCC/C=C\C/C=C\CCCCC)O[Si](C)(C)OCCCCCCN1CCN(CCO)CC1 (stereo not drawn) [Example 58, 2-(4-((20Z,23Z)-10-((8Z,11Z)-heptadeca-8,11-dien-1-yl)-8,8-dimethyl-7,9,11-trioxa-8-silanonacosa-20,23-dien-1-yl)piperazin-1-yl)ethan-1-ol] | 3.85E+02 | 3.92E+03 | 7.51E+03 | 97% |
| CCCCC/C=C\C/C=C\CCCCCCCCOC(CCCCCCC/C=C\C/C=C\CCCCC)O[Si](C)(C)OCCCCCCN(C)CC(O)CO (stereo not drawn) [Example 59, (24Z,27Z)-14-((8Z,11Z)-heptadeca-8,11-dien-1-yl)-4,12,12-trimethyl-11,13,15-trioxa-4-aza-12-silatritriaconta-24,27-diene-1,2-diol] | 9.07E+03 | 2.41E+05 | 5.66E+05 | 90% |
| CCCCC/C=C\C/C=C\CCCCCCCCOC(CCCCCCC/C=C\C/C=C\CCCCC)O[Si](C)(C)OCCCCCCN(C)CCCCO (stereo not drawn) [Example 60, (25Z,28Z)-15-((8Z,11Z)-heptadeca-8,11-dien-1-yl)-5,13,13-trimethyl-12,14,16-trioxa-5-aza-13-silatetratriaconta-25,28-dien-1-ol] | 1.76E+05 | 1.12E+06 | 1.81E+06 | 88% |
| CCCCC/C=C\C/C=C\CCCCCCCCOC(CCCCCCC/C=C\C/C=C\CCCCC)O[Si](C)(C)OCCCCCCN(CCCCO)CCCCO (stereo not drawn) [Example 62, (25Z,28Z)-15-((8Z,11Z)-heptadeca-8,11-dien-1-yl)-5-(4-hydroxybutyl)-13,13-dimethyl-12,14,16-trioxa-5-aza-13-silatetratriaconta-25,28-dien-1-ol] | 1.95E+05 | 8.70E+05 | 1.68E+06 | 89% |
| CCCCC/C=C\C/C=C\CCCCCCCCOC(CCCCCCC/C=C\C/C=C\CCCCC)O[Si](C)(C)OCCCCCCN1CCCCC1CO (stereo not drawn) [Example 64, (1-((20Z,23Z)-10-((8Z,11Z)-heptadeca-8,11-dien-1-yl)-8,8-dimethyl-7,9,11-trioxa-8-silanonacosa-20,23-dien-1-yl)piperidin-2-yl)methanol] | 3.40E+05 | 1.89E+06 | 3.78E+06 | 100% |
| CCCCC/C=C\C/C=C\CCCCCCCCOC(CCCCCN(C)CC(O)CO)O[Si](C)(C)OCCCCCCCC/C=C\C/C=C\CCCCC (stereo not drawn) [Example 66, (22Z,25Z)-4,12,12-trimethyl-10-(((9Z,12Z)-octadeca-9,12-dien-1-yl)oxy)-11,13-dioxa-4-aza-12-silahentriaconta-22,25-diene-1,2-diol] | 1.06E+05 | 1.14E+06 | 3.31E+06 | 91% |
| C#CCN(C)CCCCCCO[Si](C)(C)OC(CCCCCCC/C=C\C/C=C\CCCCC)OCCCCCCCC/C=C\C/C=C\CCCCC (stereo not drawn) [Example 67, (20Z,23Z)-10-((8Z,11Z)-heptadeca-8,11-dien-1-yl)-N,8,8-trimethyl-N-(prop-2-yn-1-yl)-7,9,11-trioxa-8-silanonacosa-20,23-dien-1-amine] | 2.42E+04 | 4.02E+05 | 1.79E+06 | 94% |
| CCCCC/C=C\C/C=C\CCCCCCCCOC(CCCCCCC/C=C\C/C=C\CCCCC)O[Si](C)(C)OCCCCCCN(C)Cc1cn(C2[C@H](O)O[C@H](CO)[C@@H](O)[C@@H]2O)nn1 (stereo partly drawn) [Example 68, (4R,5S,6R)-3-(4-((22Z,25Z)-12-((8Z,11Z)-heptadeca-8,11-dien-1-yl)-2,10,10-trimethyl-9,11,13-trioxa-2-aza-10-silahentriaconta-22,25-dien-1-yl)-1H-1,2,3-triazol-1-yl)-6-(hydroxymethyl)tetrahydro-2H-pyran-2,4,5-triol] | 2.74E+02 | 1.30E+03 | 7.84E+03 | 92% |
